Data taken from patent US20230114728A1 (Venatorx Pharmaceuticals, Inc., priority 2019, published 2023).
Values after ≈ are worked out from the molar mass of the structure shown.

Key:
[1] = tested on: A. baumannii CDC-0045 producing TEM-1D, OXA-23, and OXA-69; assay: Broth microdilution MIC in iron-depleted CAMHB (IDM); format: cell-based; settings: Acinetobacter baumannii, read-out: Minimum Inhibitory Concentration, CDC-0045
[2] = biological target: T1, E. coli K12 PBP3 (Escherichia coli, UniProt P0AD68); assay: biochemical; format: binding
T1 construct: made in house
Summary of the method: (§1)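 A. baumannii PBP2 (2.5 μM) and PBP3 (0.2 μM) were run in 25 mM Tris pH 8.0 buffer with Tween 20; E. coli PBP3 (1.5 μM) and N. gonorrhoeae PBP2 ([…]) in 50 mM Hepes pH 8.0 buffer.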

[3] = tested on: P. aeruginosa CDC-0110; assay: Broth microdilution MIC in iron-depleted CAMHB (IDM); format: cell-based; settings: Pseudomonas aeruginosa, CDC0110, read-out: Minimum Inhibitory Concentration, P. aeruginosa CDC-0110
Summary of the method: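 MIC is the lowest well showing no visible growth after 16-20 h at 37 °C, starting from 2-8×10^5 CFU/mL in 2-fold serial compound dilutions. Medium: cation-adjusted Mueller Hinton broth iron-depleted with Chelex 100, supplemented back with Ca, Mg and Zn, pH 7.3; CLSI protocol.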

[4] = biological target: T2, N. gonorrhoeae PBP2 (Neisseria gonorrhoeae, UniProt P08149); assay: Bocillin-FL fluorescence polarization competition binding assay, N. gonorrhoeae PBP2; settings: fluorescence polarization competition binding assay using Bocillin-FL; read-out: N. gonorrhoeae PBP2 Potency
T2 construct: made in house
Summary of the method: as §1

T1 sequence (P0AD68 1-577): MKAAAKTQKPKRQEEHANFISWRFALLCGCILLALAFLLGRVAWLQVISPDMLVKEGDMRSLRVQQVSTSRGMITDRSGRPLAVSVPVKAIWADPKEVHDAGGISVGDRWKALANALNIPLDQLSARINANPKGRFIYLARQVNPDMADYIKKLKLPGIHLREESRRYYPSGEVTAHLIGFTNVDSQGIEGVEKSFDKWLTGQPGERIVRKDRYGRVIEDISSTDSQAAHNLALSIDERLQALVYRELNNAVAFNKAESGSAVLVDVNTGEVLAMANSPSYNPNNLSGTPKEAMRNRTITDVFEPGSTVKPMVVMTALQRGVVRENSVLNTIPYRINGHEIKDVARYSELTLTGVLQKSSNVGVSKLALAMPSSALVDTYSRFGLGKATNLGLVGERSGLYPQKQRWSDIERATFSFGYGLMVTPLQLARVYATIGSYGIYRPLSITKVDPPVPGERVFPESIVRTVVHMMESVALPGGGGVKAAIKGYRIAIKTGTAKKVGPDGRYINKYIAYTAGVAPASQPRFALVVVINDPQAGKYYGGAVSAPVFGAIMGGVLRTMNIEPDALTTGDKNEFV
T2 sequence (P08149 whole entry): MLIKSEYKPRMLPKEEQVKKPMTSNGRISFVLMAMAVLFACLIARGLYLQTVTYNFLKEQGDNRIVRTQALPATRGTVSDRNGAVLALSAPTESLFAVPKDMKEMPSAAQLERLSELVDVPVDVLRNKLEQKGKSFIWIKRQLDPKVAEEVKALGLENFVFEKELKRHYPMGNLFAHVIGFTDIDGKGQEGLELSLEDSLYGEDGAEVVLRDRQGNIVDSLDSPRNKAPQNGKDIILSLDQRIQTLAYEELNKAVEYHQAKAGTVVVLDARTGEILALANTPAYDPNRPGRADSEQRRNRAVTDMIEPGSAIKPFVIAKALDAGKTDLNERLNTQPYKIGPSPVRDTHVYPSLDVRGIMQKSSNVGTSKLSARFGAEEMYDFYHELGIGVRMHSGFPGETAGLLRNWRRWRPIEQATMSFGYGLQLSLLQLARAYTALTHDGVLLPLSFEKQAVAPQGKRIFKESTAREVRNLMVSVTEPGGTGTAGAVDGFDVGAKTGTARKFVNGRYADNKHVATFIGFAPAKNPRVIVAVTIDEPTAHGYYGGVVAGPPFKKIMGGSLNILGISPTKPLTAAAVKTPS

Compound	MIC [1]	EC50 [2]	MIC [3]	EC50 [4]
CCN1CCN(C(=O)N[C@H](C(=O)N[C@H]2Cc3ccc(F)c(C(=O)O)c3OB2O)c2c(F)cc(O)c(O)c2Cl)C(=O)C1=O (single isomer, unassigned) [Example 125]	> 128 µg/mL	> 500 µM	> 128 µg/mL	–
NC1(CN2CCN(C(=O)N[C@@H](C(=O)N[C@H]3Cc4ccc(F)c(C(=O)O)c4OB3O)c3cc(F)c(O)c(O)c3Cl)C(=O)C2=O)CC1 (single isomer, unassigned) [Example 133]	8 to 16 µg/mL (≈ 12.3 to 24.5 µM)	30 to 500 µM	0.5 to 1 µg/mL (≈ 0.767 to 1.53 µM)	–
NC1(CN2CCN(C(=O)N[C@@H](C(=O)N[C@H]3Cc4ccc(F)c(C(=O)O)c4OB3O)c3c(F)cc(O)c(O)c3Cl)C(=O)C2=O)CC1 (single isomer, unassigned) [Example 134]	32 to 64 µg/mL (≈ 49.1 to 98.2 µM)	30 to 500 µM	2 to 4 µg/mL (≈ 3.07 to 6.14 µM)	–
CCN1CCN(C(=O)N[C@H](C(=O)N[C@H]2Cc3cccc(C(=O)O)c3OB2O)c2ccc(C(=O)O)c(F)c2F)C(=O)C1=O (single isomer, unassigned) [Example 139]	–	< 30 µM	–	< 10 µM
CCN1CCN(C(=O)N[C@@H](C(=O)N[C@H]2Cc3cccc(C(=O)O)c3OB2O)c2ccc(C(=O)O)c(F)c2F)C(=O)C1=O (single isomer, unassigned) [Example 140]	–	< 30 µM	–	< 10 µM
CCN1CCN(C(=O)N[C@@H](C(=O)N[C@H]2Cc3cccc(C(=O)O)c3OB2O)c2ccc(C(=O)O)c(F)c2)C(=O)C1=O (single isomer, unassigned) [Example 146]	–	< 30 µM	–	< 10 µM
CCN1CCN(C(=O)N[C@H](C(=O)N[C@H]2Cc3cccc(C(=O)O)c3OB2O)c2ccc(C(=O)O)c(F)c2)C(=O)C1=O (single isomer, unassigned) [Example 147]	–	< 30 µM	–	< 10 µM
CCN1CCN(C(=O)N[C@@H](C(=O)N[C@H]2Cc3cccc(C(=O)O)c3OB2O)c2cc(F)c(C(=O)O)cc2Cl)C(=O)C1=O (single isomer, unassigned) [Example 148]	–	< 30 µM	–	< 10 µM
CCN1CCN(C(=O)N[C@H](C(=O)N[C@H]2Cc3cccc(C(=O)O)c3OB2O)c2cc(F)c(C(=O)O)cc2Cl)C(=O)C1=O (single isomer, unassigned) [Example 149]	–	30 to 500 µM	–	30 to 100 µM
CCN1CCN(C(=O)N[C@@H](C(=O)N[C@H]2Cc3cccc(C(=O)O)c3OB2O)c2ccc(C(=O)O)cc2Cl)C(=O)C1=O (single isomer, unassigned) [Example 151]	–	< 30 µM	–	< 10 µM
CCN1CCN(C(=O)N[C@H](C(=O)N[C@H]2Cc3cccc(C(=O)O)c3OB2O)c2ccc(C(=O)O)cc2Cl)C(=O)C1=O (single isomer, unassigned) [Example 152]	–	30 to 500 µM	–	10 to 30 µM
CCN1CCN(C(=O)N[C@@H](C(=O)N[C@H]2Cc3cccc(C(=O)O)c3OB2O)c2ccc(C(=O)O)c(Cl)c2)C(=O)C1=O (single isomer, unassigned) [Example 154]	–	< 30 µM	–	< 10 µM
CCN1CCN(C(=O)N[C@H](C(=O)N[C@H]2Cc3cccc(C(=O)O)c3OB2O)c2ccc(C(=O)O)c(Cl)c2)C(=O)C1=O (single isomer, unassigned) [Example 155]	–	< 30 µM	–	< 10 µM
NCCN1CCN(C(=O)N[C@@H](C(=O)N[C@H]2Cc3cccc(C(=O)O)c3OB2O)c2cc(F)c(O)c(F)c2)C(=O)C1=O (single isomer, unassigned) [Example 159]	–	< 30 µM	–	< 10 µM
NCCN1CCN(C(=O)N[C@@H](C(=O)N[C@H]2Cc3cccc(C(=O)O)c3OB2O)c2cc(F)c(O)c(F)c2F)C(=O)C1=O (single isomer, unassigned) [Example 168]	–	< 30 µM	–	< 10 µM
NCCN1CCN(C(=O)N[C@@H](C(=O)N[C@H]2Cc3ccc(F)c(C(=O)O)c3OB2O)c2cc(F)c(O)c(O)c2Cl)C(=O)C1=O (single isomer, unassigned) [Example 179]	8 to 16 µg/mL (≈ 12.8 to 25.6 µM)	< 30 µM	0.5 to 1 µg/mL (≈ 0.799 to 1.6 µM)	> 100 µM
NCCCN1CCN(C(=O)N[C@@H](C(=O)N[C@H]2Cc3ccc(F)c(C(=O)O)c3OB2O)c2cc(F)c(O)c(O)c2Cl)C(=O)C1=O (single isomer, unassigned) [Example 180]	2 to 4 µg/mL (≈ 3.13 to 6.25 µM)	< 30 µM	0.25 µg/mL (≈ 0.391 µM)	> 100 µM
C[C@@H](O)[C@@H](NC(=O)N1CCN(CCNC(=O)c2c(F)cc(O)c(O)c2Cl)C(=O)C1=O)C(=O)N[C@H]1Cc2ccc(F)c(C(=O)O)c2OB1O [Example 102, (R)-3-((2R,3R)-2-(4-(2-(2-chloro-6-fluoro-3,4-dihydroxybenzamido)ethyl)-2,3-dioxopiperazine-1-carboxamido)-3-hydroxybutanamido)-7-fluoro-2-hydroxy-3,4-dihydro-2H-benzo[e][1,2]oxaborinine-8-carboxylic acid]	32 to 64 µg/mL (≈ 45.9 to 91.7 µM)	30 to 500 µM	0.5 to 1 µg/mL (≈ 0.717 to 1.43 µM)	10 to 30 µM
CCN1CCN(C(=O)NC(C(=O)N[C@H]2Cc3cccc(C(=O)O)c3OB2O)c2cccc(C(=O)O)c2)C(=O)C1=O (stereo partly drawn) [Example 113, (3R)-3-(2-(3-carboxyphenyl)-2-(4-ethyl-2,3-dioxopiperazine-1-carboxamido)acetamido)-2-hydroxy-3,4-dihydro-2H-benzo[e][1,2]oxaborinine-8-carboxylic acid]	–	< 30 µM	–	< 10 µM
NS(=O)(=O)Nc1cccc(C(NC(=O)N2CCN(Cc3c(F)cc(O)c(O)c3Cl)C(=O)C2=O)C(=O)N[C@H]2Cc3cccc(C(=O)O)c3OB2O)c1 (stereo partly drawn) [Example 131, (3R)-3-(2-(4-(2-chloro-6-fluoro-3,4-dihydroxybenzyl)-2,3-dioxopiperazine-1-carboxamido)-2-(3-(sulfamoylamino)phenyl)acetamido)-2-hydroxy-3,4-dihydro-2H-benzo[e][1,2]oxaborinine-8-carboxylic acid]	> 128 µg/mL	< 30 µM	2 to 4 µg/mL (≈ 2.67 to 5.34 µM)	–
NS(=O)(=O)c1cc(O)cc(C(NC(=O)N2CCN(Cc3c(F)cc(O)c(O)c3Cl)C(=O)C2=O)C(=O)N[C@H]2Cc3cccc(C(=O)O)c3OB2O)c1 (stereo partly drawn) [Example 132, (3R)-3-(2-(4-(2-chloro-6-fluoro-3,4-dihydroxybenzyl)-2,3-dioxopiperazine-1-carboxamido)-2-(3-hydroxy-5-sulfamoylphenyl)acetamido)-2-hydroxy-3,4-dihydro-2H-benzo[e][1,2]oxaborinine-8-carboxylic acid]	> 128 µg/mL	30 to 500 µM	2 to 4 µg/mL (≈ 2.67 to 5.33 µM)	–
NCCN1CCN(C(=O)NC(C(=O)N[C@H]2Cc3cccc(C(=O)O)c3OB2O)c2c(F)c(F)c(O)c(F)c2F)C(=O)C1=O (stereo partly drawn) [Example 174, (3R)-3-(2-(4-(2-aminoethyl)-2,3-dioxopiperazine-1-carboxamido)-2-(2,3,5,6-tetrafluoro-4-hydroxyphenyl)acetamido)-2-hydroxy-3,4-dihydro-2H-benzo[e][1,2]oxaborinine-8-carboxylic acid]	–	< 30 µM	–	< 10 µM
CCN1CCN(C(=O)NC(C(=O)N[C@H]2Cc3cccc(C(=O)O)c3OB2O)c2c(F)c(F)c(O)c(F)c2F)C(=O)C1=O (stereo partly drawn) [Example 175, (3R)-3-(2-(4-ethyl-2,3-dioxopiperazine-1-carboxamido)-2-(2,3,5,6-tetrafluoro-4-hydroxyphenyl)acetamido)-2-hydroxy-3,4-dihydro-2H-benzo[e][1,2]oxaborinine-8-carboxylic acid]	–	< 30 µM	–	< 10 µM
CCN1CCN(C(=O)NC(C(=O)N[C@H]2Cc3cccc(C(=O)O)c3OB2O)c2c(F)cc(NS(N)(=O)=O)cc2F)C(=O)C1=O (stereo partly drawn) [Example 176, (3R)-3-(2-(2,6-difluoro-4-(sulfamoylamino)phenyl)-2-(4-ethyl-2,3-dioxopiperazine-1-carboxamido)acetamido)-2-hydroxy-3,4-dihydro-2H-benzo[e][1,2]oxaborinine-8-carboxylic acid]	–	< 30 µM	–	< 10 µM
NCCN1CCN(C(=O)NC(C(=O)N[C@H]2Cc3cccc(C(=O)O)c3OB2O)c2c(F)cc(NS(N)(=O)=O)cc2F)C(=O)C1=O (stereo partly drawn) [Example 177, (3R)-3-(2-(4-(2-aminoethyl)-2,3-dioxopiperazine-1-carboxamido)-2-(2,6-difluoro-4-(sulfamoylamino)phenyl)acetamido)-2-hydroxy-3,4-dihydro-2H-benzo[e][1,2]oxaborinine-8-carboxylic acid]	–	30 to 500 µM	–	10 to 30 µM
NCCCN1CCN(C(=O)NC(C(=O)N[C@H]2Cc3ccc(F)c(C(=O)O)c3OB2O)c2c(F)cc(O)cc2F)C(=O)C1=O (stereo partly drawn) [Example 178, (3R)-3-(2-(4-(3-aminopropyl)-2,3-dioxopiperazine-1-carboxamido)-2-(2,6-difluoro-4-hydroxyphenyl)acetamido)-7-fluoro-2-hydroxy-3,4-dihydro-2H-benzo[e][1,2]oxaborinine-8-carboxylic acid]	–	< 30 µM	–	> 100 µM
CCN1CCN(C(=O)NC(C(=O)N[C@H]2Cc3cccc(C(=O)O)c3OB2O)c2c(F)cc(N)cc2F)C(=O)C1=O (stereo partly drawn) [Example 181, (3R)-3-(2-(4-amino-2,6-difluorophenyl)-2-(4-ethyl-2,3-dioxopiperazine-1-carboxamido)acetamido)-2-hydroxy-3,4-dihydro-2H-benzo[e][1,2]oxaborinine-8-carboxylic acid]	–	< 30 µM	–	> 100 µM
